Biological target: T1, 11β-HSD1 (human enzyme) (Homo sapiens, UniProt P28845)
T1 construct: made in house
Assay: Enzyme Assay (SPA, 3H-cortisone), human enzyme prep
Format: biochemical
Conditions: species of enzyme (human or mouse) not stated

T1 sequence (P28845 whole entry): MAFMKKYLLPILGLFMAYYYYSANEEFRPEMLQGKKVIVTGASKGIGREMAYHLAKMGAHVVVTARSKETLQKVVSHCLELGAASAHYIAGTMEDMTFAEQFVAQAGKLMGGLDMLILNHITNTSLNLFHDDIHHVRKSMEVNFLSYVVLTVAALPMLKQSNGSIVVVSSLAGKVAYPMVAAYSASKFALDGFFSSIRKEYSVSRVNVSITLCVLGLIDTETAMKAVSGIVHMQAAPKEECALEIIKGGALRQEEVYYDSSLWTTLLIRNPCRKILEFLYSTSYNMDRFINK

Row | IC50 [nM] | SMILES
1 | < 20 | CC1(CC2CCOCC2)SC(N[C@H]2C[C@@H]3CC[C@H]2C3)=NC1=O (stereo partly drawn) [2-((1S,2S,4R)-bicyclo[2.2.1]heptan-2-ylamino)-5-methyl-5-((tetrahydro-2H-pyran-4-yl)methyl)thiazol-4(5H)-one]
2 | < 20 | Cc1ccccc1NC1=NC(=O)C(C2CCCC2)S1 (stereo not shown) [2-(o-toluidino)-5-cyclopentylthiazol-4(5H)-one]
3 | < 20 | CC(C)C1(C)SC(Nc2ccccc2Cl)=NC1=O (stereo not shown) [2-((2-chlorophenyl)amino)-5-methyl-5-(1-methylethyl)-1,3-thiazol-4(5H)-one]
4 | < 20 | CC(C)C1(C)SC(Nc2ccccc2C(F)(F)F)=NC1=O (stereo not shown) [5-methyl-5-(1-methylethyl)-2-((2-(trifluoromethyl)phenyl)amino)-1,3-thiazol-4(5H)-one]

— patent US8541592B2, “Inhibitors of 11-beta-hydroxysteroid dehydrogenase type 1” (Amgen Inc., priority 2005, dated 2013)
